Laboratory results reported in patent US20250353858A1, “CONDENSED HETEROCYCLIC COMPOUNDS AS INHIBITOR OF DIACYLGLYCEROL KINASES” (BEONE MEDICINES I GMBH, priority 2023, published 2025).

Key:
DGKζ = DGKζ (Homo sapiens (Human), UniProt Q13574); assay: Biochemical DGK IC50 assay (ADP-Glo, lipid micelle substrate), DGKζ; details: full length DGKζ 0.5 nM, ATP 140 μM, DAG 80 μM
Procedure: (§1) Enzymatic reactions of DGKζ, DGKα and DGKδ were performed using ADP-Glo assay with lipid micelle substrate. […] Full length DGKα (D21-10BG, SignalChem) and full length DGKδ (D23-10G, SignalChem) were purchased. Lipid micelle was prepared by dissolving DAG (Sigma, 317505-10MG) and PS (Sigma, P7769-100MG) with chloroform which was furtherly removed by rotary evaporation. The resulted product was resuspended in buffer containing 25 mM HEPES pH 7.0, 0.5 mM EDTA and 160 mM Octyl β-D glucopyranoside by vigorous mixing and ultrasonic (IID, Scientz).
(§2) The inhibition activities testing for the compound disclosed herein were carried out at room temperature in assay buffer containing 50 mM HEPES, 10 mM MgCl2, 0.01% BSA, 0.1 mM Na3VO4, 0.005% Tween-20 and 0.01 mM CaCl2. Compounds in DMSO were dispensed into wells of a black 384 well plate (Corning 4514) using D300e digital dispenser (Tecan). […] 3 μL 2× enzyme solution was added to wells. […] After 1 hour reaction, 5 μL ADP-Glo reagent (Promga V9101) was added and incubated for 40 minutes. 10 μL Kinase Detection reagent was added and incubated for 30 minutes. Luminescence was measured on a microplate reader (PHERAstar FSX, BMG labtech). The IC50s are calculated based on inhibition of enzyme activity in the presence of increasing concentrations of compounds.
Human His-TEV-DGK-zeta-pFastBac1 and human baculovirus samples was generated using the Bac-to-Bac baculovirus expression system (Invitrogen) according to the manufacturer's protocol. The DNA used for expression of DGK-zeta, have SEQ ID Nos: 1. Baculovirus amplification was achieved using infected SF9 cells at 1:2000 virus/cells ratios, and grown for 96 hours at 27° C. post-transfected.
Full length human DGKζ produced as described above, was purified from Sf9 baculovirus-infected insect cell paste. The cells were lysed using sonication method, and the lysates were clarified by centrifugation.

DGKα = DGKα (Homo sapiens (Human), UniProt P23743); assay: Biochemical DGK IC50 assay (ADP-Glo, lipid micelle substrate), DGKα; details: full length DGKα […], ATP 140 μM, DAG 80 μM; further: full length DGKα 7.5 nM
Procedure: as §1, §2

Chain of DGKα (P23743 whole entry): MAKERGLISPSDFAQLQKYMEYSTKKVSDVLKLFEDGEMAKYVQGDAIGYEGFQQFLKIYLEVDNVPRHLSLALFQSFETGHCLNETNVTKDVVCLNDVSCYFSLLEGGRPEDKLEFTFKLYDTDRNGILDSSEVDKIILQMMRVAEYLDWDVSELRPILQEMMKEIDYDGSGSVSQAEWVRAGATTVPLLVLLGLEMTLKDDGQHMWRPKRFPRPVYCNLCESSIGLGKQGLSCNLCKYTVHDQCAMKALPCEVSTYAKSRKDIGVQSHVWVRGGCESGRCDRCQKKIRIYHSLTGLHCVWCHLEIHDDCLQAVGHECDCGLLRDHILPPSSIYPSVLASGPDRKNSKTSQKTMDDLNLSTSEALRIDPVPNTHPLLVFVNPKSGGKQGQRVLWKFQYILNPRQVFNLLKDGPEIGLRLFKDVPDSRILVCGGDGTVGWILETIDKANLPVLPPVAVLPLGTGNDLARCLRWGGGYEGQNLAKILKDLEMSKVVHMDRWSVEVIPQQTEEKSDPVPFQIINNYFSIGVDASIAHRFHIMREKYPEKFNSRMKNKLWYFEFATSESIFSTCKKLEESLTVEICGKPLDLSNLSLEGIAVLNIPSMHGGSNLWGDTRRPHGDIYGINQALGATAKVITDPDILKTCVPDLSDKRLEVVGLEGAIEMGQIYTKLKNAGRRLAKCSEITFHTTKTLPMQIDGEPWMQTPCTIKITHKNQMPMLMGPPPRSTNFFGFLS
Chain of DGKζ (Q13574 other isoform, or with tags, fused parts or gaps): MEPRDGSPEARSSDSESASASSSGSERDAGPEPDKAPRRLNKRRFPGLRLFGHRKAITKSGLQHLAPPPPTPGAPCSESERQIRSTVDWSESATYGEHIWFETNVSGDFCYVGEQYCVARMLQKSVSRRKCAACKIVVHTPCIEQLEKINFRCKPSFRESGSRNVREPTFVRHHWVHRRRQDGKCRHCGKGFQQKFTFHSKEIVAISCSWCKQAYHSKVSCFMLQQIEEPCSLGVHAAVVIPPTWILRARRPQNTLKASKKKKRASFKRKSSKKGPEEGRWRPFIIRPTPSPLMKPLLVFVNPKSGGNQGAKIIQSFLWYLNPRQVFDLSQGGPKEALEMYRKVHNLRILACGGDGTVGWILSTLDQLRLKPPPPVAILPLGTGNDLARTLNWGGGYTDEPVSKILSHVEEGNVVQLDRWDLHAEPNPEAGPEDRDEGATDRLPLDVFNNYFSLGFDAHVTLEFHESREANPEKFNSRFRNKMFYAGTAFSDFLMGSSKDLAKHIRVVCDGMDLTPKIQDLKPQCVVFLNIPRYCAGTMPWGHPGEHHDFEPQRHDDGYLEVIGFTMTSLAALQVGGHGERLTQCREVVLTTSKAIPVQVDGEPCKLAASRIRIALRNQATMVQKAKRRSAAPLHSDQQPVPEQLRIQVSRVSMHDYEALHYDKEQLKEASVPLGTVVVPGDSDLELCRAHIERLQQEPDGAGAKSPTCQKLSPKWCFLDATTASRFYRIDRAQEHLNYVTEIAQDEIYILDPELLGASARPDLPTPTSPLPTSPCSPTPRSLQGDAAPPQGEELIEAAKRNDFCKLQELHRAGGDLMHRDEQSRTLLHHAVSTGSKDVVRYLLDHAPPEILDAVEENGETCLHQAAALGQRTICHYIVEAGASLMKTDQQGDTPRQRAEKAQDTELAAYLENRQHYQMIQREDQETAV

| IC50 (DGKζ) | IC50 (DGKα) | Structure (SMILES) |
| --- | --- | --- |
| 100 nM | 116000 nM | Cc1cnc2ccc(C(C)N3C[C@H](C)N(c4cc(=O)[nH]c5cc(CC#N)nn45)C[C@H]3C)cc2n1 (stereo partly drawn) [Compound A5, 2-(7-((2S,5R)-2,5-dimethyl-4-(1-(3-methylquinoxalin-6-yl)ethyl)piperazin-1-yl)-5-oxo-4,5-dihydropyrazolo[1,5-a]pyrimidin-2-yl)acetonitrile] |
| 58 nM | 4640 nM | CC(c1ccc2ncc(C(F)F)nc2c1)N1C[C@H](C)N(c2cc(=O)n(C)c3cc(CC#N)nn23)C[C@H]1C (stereo partly drawn) [Compound A6, 2-(7-((2S,5R)-4-(1-(3-(difluoromethyl)quinoxalin-6-yl)ethyl)-2,5-dimethylpiperazin-1-yl)-4-methyl-5-oxo-4,5-dihydropyrazolo[1,5-a]pyrimidin-2-yl)acetonitrile] |
| 23 nM | 16900 nM | COc1cnc2ccc(C(C)N3C[C@H](C)N(c4cc(=O)n(C)c5cc(CC#N)nn45)C[C@H]3C)cc2n1 (stereo partly drawn) [Compound A7, 2-(7-((2S,5R)-4-(1-(3-methoxyquinoxalin-6-yl)ethyl)-2,5-dimethylpiperazin-1-yl)-4-methyl-5-oxo-4,5-dihydropyrazolo[1,5-a]pyrimidin-2-yl)acetonitrile] |
| 42 nM | 13300 nM | CC(c1ccc2ncc(Cl)nc2c1)N1C[C@H](C)N(c2cc(=O)n(C)c3cc(CC#N)nn23)C[C@H]1C (stereo partly drawn) [Compound A8, 2-(7-((2S,5R)-4-(1-(3-chloroquinoxalin-6-yl)ethyl)-2,5-dimethylpiperazin-1-yl)-4-methyl-5-oxo-4,5-dihydropyrazolo[1,5-a]pyrimidin-2-yl)acetonitrile] |
| 29 nM | 6520 nM | CC(c1ccc2c(c1)OC(C)(C)CO2)N1C[C@H](C)N(c2c(C#N)c(=O)n(C)c3cc(CC#N)nn23)C[C@H]1C (stereo partly drawn) [Compound A12, 2-(cyanomethyl)-7-((2S,5R)-4-(1-(3,3-dimethyl-2,3-dihydrobenzo[b][1,4]dioxin-6-yl)ethyl)-2,5-dimethylpiperazin-1-yl)-4-methyl-5-oxo-4,5-dihydropyrazolo[1,5-a]pyrimidine-6-carbonitrile] |
| 53 nM | 10200 nM | CC(c1ccc2c(c1)OCCO2)N1C[C@H](C)N(c2cc(=O)n(C)c3cc(CC#N)nn23)C[C@H]1C (stereo partly drawn) [Compound A13, 2-(7-((2S,5R)-4-(1-(2,3-dihydrobenzo[b][1,4]dioxin-6-yl)ethyl)-2,5-dimethylpiperazin-1-yl)-4-methyl-5-oxo-4,5-dihydropyrazolo[1,5-a]pyrimidin-2-yl)acetonitrile] |
| 100 nM | 27800 nM | CC[C@H]1CN(C(C)c2ccc(F)cc2OC)[C@H](CC)CN1c1cc(=O)n(C)c2cc(CC#N)nn12 (stereo partly drawn) [Compound A16, 2-(7-((2S,5R)-2,5-diethyl-4-(1-(4-fluoro-2-methoxyphenyl)ethyl)piperazin-1-yl)-4-methyl-5-oxo-4,5-dihydropyrazolo[1,5-a]pyrimidin-2-yl)acetonitrile] |
| 136 nM | 56700 nM | CC[C@H]1CN(C(C)c2ccc(F)cc2OC(F)F)[C@H](CC)CN1c1cc(=O)n(C)c2cc(CC#N)nn12 (stereo partly drawn) [Compound A17, 2-(7-((2S,5R)-4-(1-(2-(difluoromethoxy)-4-fluorophenyl)ethyl)-2,5-diethylpiperazin-1-yl)-4-methyl-5-oxo-4,5-dihydropyrazolo[1,5-a]pyrimidin-2-yl)acetonitrile] |
| 28 nM | 15700 nM | CC[C@H]1CN(C(C)c2ccc(F)cc2C(F)F)[C@H](CC)CN1c1cc(=O)n(C)c2cc(CC#N)nn12 (stereo partly drawn) [Compound A18, 2-(7-((2S,5R)-4-(1-(2-(difluoromethyl)-4-fluorophenyl)ethyl)-2,5-diethylpiperazin-1-yl)-4-methyl-5-oxo-4,5-dihydropyrazolo[1,5-a]pyrimidin-2-yl)acetonitrile] |
| 7900 nM | 161 nM | CC[C@H]1CN(C(C)c2ccncc2)[C@H](CC)CN1c1cc(=O)n(C)n2cc(CC#N)nc12 (stereo partly drawn) [Compound A19, 2-(8-((2S,5R)-2,5-diethyl-4-(1-(pyridin-4-yl)ethyl)piperazin-1-yl)-5-methy-6-oxo-5,6-dihydroimidazo[1,2-b]pyridazin-2-yl)acetonitrile] |
| 717 nM | 2940 nM | CC[C@H]1CN(C(C)c2ccc(C3CC3)cc2F)[C@H](CC)CN1c1cc(=O)n(C)c2cc(CC#N)nn12 (stereo partly drawn) [Compound A21, 2-(7-((2S,5R)-4-(1-(4-cyclopropyl-2-fluorophenyl)ethyl)-2,5-diethylpiperazin-1-yl)-4-methyl-5-oxo-4,5-dihydropyrazolo[1,5-a]pyrimidin-2-yl)acetonitrile] |
| 105 nM | 913 nM | CC[C@H]1CN(C(C)c2ccc(C3CC3)nc2)[C@H](CC)CN1c1cc(=O)n(C)c2cc(CC#N)nn12 (stereo partly drawn) [Compound A23, 2-(7-((2S,5R)-4(1-(6-cyclopropylpyridin-3-yl)ethyl)-2,5-diethylpiperazin-1-yl)-4-methyl-5-oxo-4,5-dihydropyrazolo[1,5-a]pyrimidin-2-yl)acetonitrile] |
| 175 nM | 148 nM | CC[C@H]1CN(C(C)c2ccc(OC(C)C)cn2)[C@H](CC)CN1c1cc(=O)n(C)c2cc(CC#N)nn12 (stereo partly drawn) [Compound A25, 2-(7-((2S,5R)-2,5-diethyl-4-(1-(5-isopropoxypyridin-2-yl)ethyl)piperazin-1-yl)-4-methyl-5-oxo-4,5-dihydropyrazolo[1,5-a]pyrimidin-2-yl)acetonitrile] |
| 61 nM | 1200 nM | CC[C@H]1CN(C(C)c2ccc(C3CC3)nc2F)[C@H](CC)CN1c1cc(=O)n(C)c2cc(CC#N)nn12 (stereo partly drawn) [Compound A26, 2-(7-((2S,5R)-4-(1-(6-cyclopropyl-2-fluoropyridin-3-yl)ethyl)-2,5-diethylpiperazin-1-yl)-4-methyl-5-oxo-4,5-dihydropyrazolo[1,5-a]pyrimidin-2-yl)acetonitrile] |
| 80 nM | 617 nM | CC[C@H]1CN(C(C)c2ccc3nc(C)sc3c2)[C@H](CC)CN1c1cc(=O)n(C)c2cc(CC#N)nn12 (stereo partly drawn) [Compound A31, 2-(7-((2S,5R)-2,5-diethyl-4-(1-(2-methylbenzo[d]thiazol-6-yl)ethyl)piperazin-1-yl)-4-methyl-5-oxo-4,5-dihydropyrazolo[1,5-a]pyrimidin-2-yl)acetonitrile] |
| 629 nM | 1580 nM | CC[C@H]1CN(C(C)c2ccc3nc(C)sc3n2)[C@H](CC)CN1c1c(F)c(=O)n(C)c2cc(CC#N)nn12 (stereo partly drawn) [Compound A36, 2-(7-((2S,5R)-2,5-diethyl-4-(1-(2-methylthiazolo[5,4-b]pyridin-5-yl)ethyl)piperazin-1-yl)-6-fluoro-4-methyl-5-oxo-4,5-dihydropyrazolo[1,5-a]pyrimidin-2-yl)acetonitrile] |
| 266 nM | 267 nM | CCC(c1ccn2nc(C)cc2n1)N1C[C@H](C)N(c2cc(=O)n(C)c3cc(CC#N)nn23)C[C@H]1CC (stereo partly drawn) [Compound A43, 2-(7-((2S,5R)-5-ethyl-2-methyl-4-(1-(2-methylpyrazolo [1,5-a]pyrimidin-5-yl)propyl)piperazin-1-yl)-4-methyl-5-oxo-4,5-dihydropyrazolo [1,5-a]pyrimidin-2-yl)acetonitrile] |
| 38 nM | 55 nM | CC[C@H]1CN(C(C)c2ccn3ncc(F)c3n2)[C@H](CC)CN1c1nc(=O)n(C)c2cc(CC#N)nn12 (stereo partly drawn) [Compound A50, 2-(4-((2S,5R)-2,5-diethyl-4-(1-(3-fluoropyrazolo[1,5-a]pyrimidin-5-yl)ethyl)piperazin-1-yl)-1-methyl-2-oxo-1,2-dihydropyrazolo[1,5-a][1,3,5]triazin-7-yl)acetonitrile] |
| 53 nM | 150 nM | CC[C@H]1CN(C(C)c2ccn3nc(C)cc3c2)[C@H](CC)CN1c1nc(=O)n(C)c2cc(CC#N)nn12 (stereo partly drawn) [Compound A55, 2-(4-((2S,5R)-2,5-diethyl-4-(1-(2-methylpyrazolo[1,5-a]pyridin-5-yl)ethyl)piperazin-1-yl)-1-methyl-2-oxo-1,2-dihydropyrazolo[1,5-a][1,3,5]triazin-7-yl)acetonitrile] |
| 73 nM | 17 nM | CC[C@H]1CN(C(C)c2ccn3nc(F)cc3n2)[C@H](CC)CN1c1nc(=O)n(C)c2cc(CC#N)nn12 (stereo partly drawn) [Compound A56, 2-(4-((2S,5R)-2,5-diethyl-4-(1-(2-fluoropyrazolo[1,5-a]pyrimidin-5-yl)ethyl)piperazin-1-yl)-1-methyl-2-oxo-1,2-dihydropyrazolo[1,5-a][1,3,5]triazin-7-yl)acetonitrile] |
| 42 nM | 15 nM | CC[C@H]1CN(C(C)c2ccn3nc(Cl)cc3n2)[C@H](CC)CN1c1nc(=O)n(C)c2cc(CC#N)nn12 (stereo partly drawn) [Compound A58, 2-(4-((2S,5R)-4-(l-(2-chloropyrazolo[1,5-a]pyrimidin-5-yl)ethyl)-2,5-diethylpiperazin-1-yl)-1-methyl-2-oxo-1,2-dihydropyrazolo[1,5-a][1,3,5]triazin-7-yl)acetonitrile] |
